Data reported in PubChem BioAssay AID1963983 (Molecular Pharmacology Branch, DTP, NCI, 2024).
Where “and” joins values, the source holds several entries; their conditions need not be identical. Identical values can stand only once.

System: 186277-243-T-J2-PDC multi-cell spheroid viability
Experiment: Anticancer human tumor 186277-243-T-J2-PDC patient-derived colon adenocarcinoma cell line growth inhibition [PI3K]
Details: for viability, T/C: stronger effect = lower value
Procedure, shortened: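 Targeted small molecules plus PI3K inhibitors, half-log dose series from Cmax (default top 10 microM), were applied to heterotypic spheroids of cancer cells with HUVEC and MSCs. Viability indicated growth inhibition.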

[1] = curve of first compound, second compound 0.0316 µM
[2] = curve of first compound, second compound 0.1 µM
[3] = curve of first compound, second compound 0.316 µM
[4] = curve of first compound, second compound 1 µM
[5] = second compound 0.0316 µM, first compound 0.0316 µM
[6] = second compound 0.0316 µM, first compound 0.1 µM
[7] = second compound 0.0316 µM, first compound 0.316 µM
[8] = second compound 0.0316 µM, first compound 1 µM
[9] = second compound 0.0316 µM, first compound 3.16 µM
[10] = second compound 0.0316 µM, first compound 10 µM
[11] = second compound 0.1 µM, first compound 0.0316 µM
[12] = second compound 0.1 µM, first compound 0.1 µM
[13] = second compound 0.1 µM, first compound 0.316 µM
[14] = second compound 0.1 µM, first compound 1 µM
[15] = second compound 0.1 µM, first compound 3.16 µM
[16] = second compound 0.1 µM, first compound 10 µM
[17] = second compound 0.316 µM, first compound 0.0316 µM
[18] = second compound 0.316 µM, first compound 0.1 µM
[19] = second compound 0.316 µM, first compound 0.316 µM
[20] = second compound 0.316 µM, first compound 1 µM
[21] = second compound 0.316 µM, first compound 3.16 µM
[22] = second compound 0.316 µM, first compound 10 µM
[23] = second compound 1 µM, first compound 0.0316 µM
[24] = second compound 1 µM, first compound 0.1 µM
[25] = second compound 1 µM, first compound 0.316 µM
[26] = second compound 1 µM, first compound 1 µM
[27] = second compound 1 µM, first compound 3.16 µM
[28] = second compound 1 µM, first compound 10 µM
[29] = curve of first compound, second compound 3.16 µM
[30] = curve of first compound, second compound 10 µM
[31] = second compound 3.16 µM, first compound 0.0316 µM
[32] = second compound 3.16 µM, first compound 0.1 µM
[33] = second compound 3.16 µM, first compound 0.316 µM
[34] = second compound 3.16 µM, first compound 1 µM
[35] = second compound 3.16 µM, first compound 3.16 µM
[36] = second compound 3.16 µM, first compound 10 µM
[37] = second compound 10 µM, first compound 0.0316 µM
[38] = second compound 10 µM, first compound 0.1 µM
[39] = second compound 10 µM, first compound 0.316 µM
[40] = second compound 10 µM, first compound 1 µM
[41] = second compound 10 µM, first compound 3.16 µM
[42] = second compound 10 µM, first compound 10 µM
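Also: spheroids exposed to compounds for seven days before viability reading.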
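For viability, T/C in this document: 100% = DMSO vehicle control viability.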

`CC(C)NCC(C(=O)N1CCN(c2ncnc3c2C(C)CC3O)CC1)c1ccc(Cl)cc1` (stereo not given) + CC(Nc1ccc2c(c1)OCCn1cc(N3C(=O)OCC3C(F)F)nc1-2)C(N)=O gave an IC50 (curve of first compound, second compound 0.00316 µM) of 1120 nM, an IC50 (curve of first compound, second compound 0.01 µM) of 774 nM and an IC50 [1] of 648 nM. For the same compound, the IC50 [2] was 355 nM, the IC50 [3] was 134 nM and the IC50 [4] was under 31.6 nM. The viability, T/C (second compound 0.00316 µM, first compound 0.0316 µM) was 92.9%, the viability, T/C (second compound 0.00316 µM, first compound 0.1 µM) was 77.1% and the viability, T/C (second compound 0.00316 µM, first compound 0.316 µM) was 64.1%. For the same compound, the viability, T/C (second compound 0.00316 µM, first compound 1 µM) was 52%, the viability, T/C (second compound 0.00316 µM, first compound 3.16 µM) was 39.6% and the viability, T/C (second compound 0.00316 µM, first compound 10 µM) was 21.4%. It also gave a viability, T/C (second compound 0.01 µM, first compound 0.0316 µM) of 95.3%, a viability, T/C (second compound 0.01 µM, first compound 0.1 µM) of 87.2% and a viability, T/C (second compound 0.01 µM, first compound 0.316 µM) of 62.2%. For the same compound, the viability, T/C (second compound 0.01 µM, first compound 1 µM) was 47%, the viability, T/C (second compound 0.01 µM, first compound 3.16 µM) was 29.8% and the viability, T/C (second compound 0.01 µM, first compound 10 µM) was 18.9%. For the same compound, the viability, T/C [5] was 104%, the viability, T/C [6] was 97% and the viability, T/C [7] was 71.4%. The viability, T/C [8] was 37.1%, the viability, T/C [9] was 19% and the viability, T/C [10] was 15%. For the same compound, the viability, T/C [11] was 100%, the viability, T/C [12] was 86.2% and the viability, T/C [13] was 51%. The viability, T/C [14] was 27.8%, the viability, T/C [15] was 17.1% and the viability, T/C [16] was 12.9%. For the same compound, the viability, T/C [17] was 75.9%, the viability, T/C [18] was 53.6% and the viability, T/C [19] was 37.6%. The viability, T/C [20] was 24%, the viability, T/C [21] was 11.8% and the viability, T/C [22] was 8.85%. It also gave a viability, T/C [23] of 40.1%, a viability, T/C [24] of 33.3% and a viability, T/C [25] of 24.5%. The viability, T/C [26] was 19.4%, the viability, T/C [27] was 17.1% and the viability, T/C [28] was 6.4%.
In the case of `C#Cc1c(F)ccc2cc(O)cc(-c3ncc4c(N5CC6CCC(C5)N6)nc(OCC56CCCN5CC(F)C6)nc4c3F)c12` (stereo not given) + CC(Nc1ncnc2nc[nH]c12)c1cc2cccc(Cl)c2c(=O)n1-c1ccccc1, the IC50 [1] is reported as 94.1 nM, the IC50 [2] is reported as 93.1 nM and the IC50 [3] is reported as 87.5 nM. The IC50 [4] was 78.9 nM, the IC50 [29] was 52.9 nM and the IC50 [30] was under 31.6 nM. It also gave a viability, T/C [5] of 98.9%, a viability, T/C [6] of 47.3% and a viability, T/C [7] of 19.4%. For the same compound, the viability, T/C [8] was 11.3%, the viability, T/C [9] was 10.3% and the viability, T/C [10] was 9.72%. The viability, T/C [11] was 106%, the viability, T/C [12] was 46.3% and the viability, T/C [13] was 21.2%. The viability, T/C [14] was 13.3%, the viability, T/C [15] was 16.1% and the viability, T/C [16] was 8%. The viability, T/C [17] was 102%, the viability, T/C [18] was 41% and the viability, T/C [19] was 25.5%. For the same compound, the viability, T/C [20] was 20.3%, the viability, T/C [21] was 14.3% and the viability, T/C [22] was 11.2%. The viability, T/C [23] was 93.6%, the viability, T/C [24] was 38% and the viability, T/C [25] was 18%. It also gave a viability, T/C [26] of 19.6%, a viability, T/C [27] of 11% and a viability, T/C [28] of 6.62%. It also gave a viability, T/C [31] of 68.6%, a viability, T/C [32] of 26.3% and a viability, T/C [33] of 14.9%. For the same compound, the viability, T/C [34] was 12.1%, the viability, T/C [35] was 7.19% and the viability, T/C [36] was 4.96%. For the same compound, the viability, T/C [37] was 31.9%, the viability, T/C [38] was 12.6% and the viability, T/C [39] was 8.73%. It also gave a viability, T/C [40] of 6.7%, a viability, T/C [41] of 4.26% and a viability, T/C [42] of 4.02%.
`Cn1ncc(Cl)c1-c1cc(C(=O)NC(CN)Cc2cccc(F)c2)sc1Cl` (stereo not given) was tested, and the viability, T/C (compound 0.0316 µM) was 89.1% [middle of 4 runs], the viability, T/C (compound 0.1 µM) was 85% [middle of 4 runs] and the viability, T/C (compound 0.316 µM) was 60.5% [middle of 4 runs]. For the same compound, the viability, T/C (compound 1 µM) was 45.4% [middle of 4 runs], the viability, T/C (compound 3.16 µM) was 46.1% [middle of 4 runs] and the viability, T/C (compound 10 µM) was 19.8% [middle of 4 runs]. The IC50 (curve of compound) was 1.17 µM [middle of 4 runs].
With `Cn1cnc2c(F)c(Nc3ccc(Br)cc3Cl)c(C(=O)NOCCO)cc21` the viability, T/C (compound 0.00949 µM) was 97.9% [middle of 4 runs], the viability, T/C (compound 0.03 µM) was 87.4% [middle of 4 runs] and the viability, T/C (compound 0.0949 µM) was 61.9% [middle of 4 runs]. For the same compound, the viability, T/C (compound 0.3 µM) was 38% and 43.4% (2×) and 37.6%, the viability, T/C (compound 0.949 µM) was 22.7% [middle of 4 runs] and the viability, T/C (compound 3 µM) was 9.95% [middle of 4 runs]. The IC50 (curve of compound) was 193 nM [middle of 4 runs].
In the case of `CNC(=O)c1ccc(N2C(=S)N(c3ccc(C#N)c(C(F)(F)F)c3)C(=O)C2(C)C)cc1F` + CC(Nc1ncnc2nc[nH]c12)c1cc2cccc(Cl)c2c(=O)n1-c1ccccc1, the IC50 [1] is reported as over 10000 nM, the IC50 [2] is reported as over 10000 nM and the IC50 [3] is reported as over 10000 nM. For the same compound, the IC50 [4] was over 10000 nM, the IC50 [29] was over 10000 nM and the IC50 [30] was over 10000 nM. The viability, T/C [5] was 100%, the viability, T/C [6] was 117% and the viability, T/C [7] was 90.9%. The viability, T/C [8] was 90.1%, the viability, T/C [9] was 101% and the viability, T/C [10] was 92%. It also gave a viability, T/C [11] of 99.7%, a viability, T/C [12] of 107% and a viability, T/C [13] of 88.6%. For the same compound, the viability, T/C [14] was 115%, the viability, T/C [15] was 115% and the viability, T/C [16] was 99.8%. For the same compound, the viability, T/C [17] was 104%, the viability, T/C [18] was 119% and the viability, T/C [19] was 102%. It also gave a viability, T/C [20] of 104%, a viability, T/C [21] of 112% and a viability, T/C [22] of 113%. For the same compound, the viability, T/C [23] was 89.3%, the viability, T/C [24] was 112% and the viability, T/C [25] was 117%. It also gave a viability, T/C [26] of 116%, a viability, T/C [27] of 106% and a viability, T/C [28] of 103%. For the same compound, the viability, T/C [31] was 116%, the viability, T/C [32] was 128% and the viability, T/C [33] was 103%. The viability, T/C [34] was 106%, the viability, T/C [35] was 118% and the viability, T/C [36] was 92.9%. For the same compound, the viability, T/C [37] was 90.5%, the viability, T/C [38] was 102% and the viability, T/C [39] was 103%. It also gave a viability, T/C [40] of 96.6%, a viability, T/C [41] of 92.1% and a viability, T/C [42] of 89.4%.
